Test [1] has as its system LPS-induced inflammatory factors in serum. The test can be described thus: LPS-induced cytokines in serum of sepsis mouse model (CP-Me). The class given is in vivo, male C57BL/6 mice. The note with it: 10 mg/kg and 3 mg/kg intraperitoneal, two times; LPS 25 mg/kg; serum after 12 hours; IL-1β, IL-6, TNF-α; FIG. 7. How it is done:
A total of 24 male C57BL/6 mice aged 6-8 weeks, weighing 20±2 g, were selected. The mice were placed in a feeding room with temperature of 20-24° C. and humidity of 50%-60%, and were allowed to drink and eat freely. They were adaptively raised for 7 days before the experiment. Mice were randomly divided into four groups: control group, CP-Me group, LPS group and LPS+CP-Me group, with 6 mice in each group. CP-Me 10 mg/kg group and CP-Me 3 mg/kg group were intraperitoneally injected with 200 μL CP-Me solution at the concentrations of 10 mg/kg and 3 mg/kg, while the control group and LPS group were intraperitoneally injected with equal volume of 0.9% normal saline. LPS group was injected intraperitoneally with 200 μL LPS solution at 25 mg/kg for modeling. Each group was administered once for a total of two times, 12 hours before modeling and 30 minutes after modeling. After 12 hours of administration, the mice were anesthetized and blood was taken from the heart. After the blood stood for 2 hours, it was centrifuged at 5000 rpm for 10 minutes to collect serum. According to the instructions of Elisa kit, the absorbance of each hole was detected by using a multifunctional enzyme-labeled instrument at the wavelength of 450 nm, and the contents of cytokines IL-1β, IL-6, and TNF-α were calculated according to the standard curve.

The test system of test [2] is LPS-induced sepsis model. The test can be described thus: LPS-induced survival rate in sepsis model of mice. The note with it: three times, LPS 45 mg/kg, after 72 hours, model group 40%. The class given is in vivo, male C57BL/6 mice. How it is done: A total of 60 male C57BL/6 mice aged 6-8 weeks, weighing 20±2 g, were selected. The mice were placed in a feeding room with temperature of 20-24° C. and humidity of 50%-60%, and were allowed to drink and eat freely. They were adaptively raised for 7 days before the experiment.
The mice were randomly divided into six groups: control group, model group, CP-1 high dose group (30 mg/kg), CP-1 middle dose group (10 mg/kg), CP-1 low dose group (3 mg/kg), and dexamethasone group, with 10 mice in each group. CP-1 high-dose group was intraperitoneally injected with 200 μL CP-1 solution at the concentration of 30 mg/kg, CP-1 middle-dose group was intraperitoneally injected with equal volume of CP-1 solution at the concentration of 10 mg/kg, CP-1 low-dose group was intraperitoneally injected with equal volume of CP-1 solution at the concentration of 3 mg/kg, dexamethasone group was intraperitoneally injected with equal volume of dexamethasone solution at the concentration of 30 mg/kg, and control group was intraperitoneally injected with equal volume of 0.9% normal saline. Except for the control group, all groups were intraperitoneally injected with 200 μL of LPS solution at 45 mg/kg for modeling. Each group was administered once for a total of three times, 48 hours and 24 hours before modeling, and 30 minutes after modeling. After administration, the state and survival rate of mice were observed and recorded every 6 hours for 72 hours.

Molecules are shown by their SMILES.

With `CO[C@@H]1OC(CO)[C@H](O)C(O[C@H]2OC(C(=O)O)[C@H](O)C(O)C2O[C@@H]2OC(CO)[C@@H](O)C(O[C@@H]3OC(C(=O)O)[C@@H](O)C(O)C3O)C2NC(C)=O)C1NC(C)=O` (stereo partly drawn) [CP-Me, methyl β-D-glucopyranuronic acid-(1→3)-2-deoxy-2-acetylamino-β-D-glucopyranosyl-(1→2)-α-D-galactopyranoic acid-(1→3)-2-deoxy-2-acetylamino-α,β-D-galactopyranoside], the “effect on LPS-induced inflammatory factors in serum” value in test [1] is “inhibitory effect”.
Turning to `CC(=O)NC1[C@H](OC2[C@@H](O[C@@H]3C(NC(C)=O)C(O)OC(CO)[C@@H]3O)OC(C(=O)O)[C@H](O)[C@@H]2O)OC(CO)[C@@H](O)[C@@H]1O[C@@H]1OC(C(=O)O)[C@@H](O)[C@H](O)C1O` (stereo partly drawn) [CP-1, β-D-glucopyranuronic acid-(1→3)-2-deoxy-2-acetylamino-β-D-glucopyranosyl-(1→2)-α-D-galactopyranoic acid-(1→3)-2-deoxy-2-acetylamino-α,β-D-galactopyranoside], the results for the “survival rate of mice” value in test [2] (3 mg/kg (low dose) intraperitoneal), in test [2] (10 mg/kg (middle dose) intraperitoneal) and in test [2] (30 mg/kg intraperitoneal) were 70%, 80% and 70%, respectively.
For the compound `C[C@@H]1C[C@H]2[C@@H]3CCC4=CC(=O)C=C[C@]4(C)[C@@]3(F)[C@@H](O)C[C@]2(C)[C@@]1(O)C(=O)CO` [dexamethasone, reference compound], the “survival rate of mice” value in test [2] (30 mg/kg intraperitoneal) was found to be 60%.

The values above are taken from patent publication US20240408126A1, “BACTERIAL CAPSULAR OLIGOSACCHARIDE DERIVATIVE, PREPARATION METHOD THEREFOR, PHARMACEUTICAL COMPOSITION AND USE THEREOF” (PEKING UNIVERSITY, priority 2021, published 2024).
